Data from paper PMC8710297, “Identification of potent SENP1 inhibitors that inactivate SENP1/JAK2/STAT signaling pathway and overcome platinum drug resistance in ovarian cancer” (Clinical and Translational Medicine, 2021).

Tested on: STAT3
Assay: pSTAT3 levels in IGROV1 CR cells (immunoblotting)
Type: cell-based
Details: Homo sapiens, IGROV-1, 48 h, read-out: IC50 (pSTAT3 levels, Figure 3C)
Procedure: FIGURE 3 Identification of UAMMC9 from UA derivatives. (A) Synthesis of UA derivatives. Reagents and conditions: (i) Ac2O, DMAP, Pyridine, r.t.; (ii) Oxalyl chloride, CH2Cl2, r.t., overnight; (iii) amines, TEA, r.t., 0.5–4 h; (iv) NaOH a.q., MeOH/THF, r.t.; (v) amines, MeOH, reflux; (vi) K2CO3, DMF, 60°C. The detail of synthesis was included in supplemental materials. (B) UAMMC9 inhibits Sentrin‐specific protease 1 (SENP1) activity in cells. (C) IGROV1 CR cells treated with indicated UAMMC9 for 48 h. Cells were then harvested and lysates were resolved on sodium dodecyl sulphate‐polyacrylamide gel electrophoresis, followed by immunoblotting for indicated proteins. (D) Cellular thermal shift assay to examine the interaction of UAMMC9 with SENP1. IGROV1 CR cells were incubated with DMSO or UAMMC9 for 4 h before treatment as in Figure 2A. (E) In vitro thermal shift assay to analyze the interactions of UAMMC9 with purified GST‐SENP1(C603A). Stability of SENP1(C603A) was analyzed by using Western blot against SENP1 antibody. […]
Figue S2. […] (B) Quantification of SENP1 in h ib iti o n by UAMMC9 in vitro and in vivo shown in A and Figure 3B . […] SE N P 1 stability wa s analyzed by using We s t e r n blot aga inst SE NP 1 antibody.
(D) Quantification of no n‐denatured SENP1 frac ti on sh own in C. (E) Quantification of th e levels of pSTAT3 as shown in Fi g u e 3C. […]

C[C@H]1[C@H](C)CC[C@]2(C(=O)NCC(=O)N(C)CCO)CC[C@]3(C)C(=CC[C@@H]4[C@@]5(C)CC[C@H](O)C(C)(C)[C@@H]5CC[C@]43C)[C@H]12 [UAMMC9]
IC50: 388 nM
